pEC50, pIC50: −log10 of the molar value. Like-named read-outs stand apart in the source and are kept apart here.
Assays:
[1] = molecular target: Japanese encephalitis virus (JEV)-NS2B-NS3 protease (Japanese encephalitis virus, UniProt P32886, DEL1469-1493); experiment: JEV protease inhibition assay; format: biochemical
ZIKV replicon = experiment: ZIKV replication inhibition assay (NanoLuc replicon in Vero cells); settings: 72 h, read-out: ZIKA Cell_Nanoluc
[2] = molecular target: T1, West Nile Virus (WNV) NS2B-NS3 protease (West Nile virus, UniProt Q9Q6P4); experiment: WNV protease inhibition assay; format: biochemical; settings: Table 4; letter codes for IC50
T1 construct: NS2B1423-1470); purchased R&D 2907-SE-020
Source text: WNV protease inhibition assay

[3] = 600 nM enzyme, 10 µM Pyr-RTKR-AMC substrate, 25 °C, read-out: JEV - NS3 protease
[4] = Vero cells with stable ZIKV replicon, Nano-Glo readout

| Compound | pIC50 [1] | pEC50 (ZIKV replicon; Zika virus, Vero) | pIC50 [1, 3] | pIC50 [2] | pEC50 (ZIKV replicon; [4]) |
| --- | --- | --- | --- | --- | --- |
| N[C@H]1CC[C@H](C[n+]2cc([N-]C(=O)Nc3cc(N4CC[C@H](c5ccccc5)C4=O)cc(C(F)(F)F)c3)on2)CC1 [Example 143, (3-(((1R,4R)-4-Aminocyclohexyl)methyl)-1,2,3-oxadiazol-3-ium-5-yl)((3-((R)-2-oxo-3-phenylpyrrolidin-1-yl)-5-(trifluoromethyl)-phenyl)carbamoyl)amide] | 4.70 to 6.00 | < 4.70 | – | – | – |
| O=C([N-]c1c[n+](C[C@H]2CC[C@H](NCC(F)(F)F)CC2)no1)Nc1cc(N2CC[C@H](c3ccccc3)C2=O)cc(C(F)(F)F)c1 [Example 144, ((3-((R)-2-Oxo-3-phenylpyrrolidin-1-yl)-5-(trifluoromethyl)phenyl)carbamoyl)(3-(((1r,4r)-4-((2,2,2-trifluoroethyl)amino)cyclohexyl)-methyl)-1,2,3-oxadiazol-3-ium-5-yl)amide] | 4.70 to 6.00 | 6.00 to 7.00 | – | – | – |
| CN(C)C[C@H]1CC[C@H]([n+]2cc([N-]C(=O)Nc3cc(NC(=O)Cc4ccccc4)cc(C(F)(F)F)c3)on2)CC1 [Example 147, (3-((1R,4R)-4-((Dimethylamino)methyl)-cyclohexyl)-1,2,3-oxadiazol-3-ium-5-yl)((3-(2-phenylacetamido)-5-(trifluoromethyl)phenyl)-carbamoyl)amide] | – | 4.70 to 6.00 | 4.70 to 6.00 | > 7.00 | – |
| CN(C)C[C@H]1CC[C@H]([n+]2cc([N-]C(=O)Nc3cc(NC(=O)Cc4ccc5c(c4)OCO5)cc(C(F)(F)F)c3)on2)CC1 [Example 154, ((3-(2-(Benzo[d][1,3]dioxol-5-yl)acetamido)-5-(trifluoromethyl)phenyl)carbamoyl)(3-((1R,4R)-4-((dimethylamino)methyl)cyclohexyl)-1,2,3-oxadiazol-3-ium-5-yl)amide] | – | – | < 4.70 | 4.70 to 6.00 | < 4.70 |
| ((3-Cyclopropyl-5-(2-(phenylsulfonyl)-acetamido)phenyl)carbamoyl)(3-((1R,4R)-4-((dimethylamino)methyl)cyclohexyl)-1,2,3-oxadiazol-3-ium-5-yl)amide [Example 150] | – | – | 4.70 to 6.00 | > 7.00 | 4.70 to 6.00 |

Source: patent publication EP4563146A1 (IRBM S.P.A., priority 2023, dated 2025)
